Columns and labels:
AgORco = target: T1, AgORco (Anopheles gambiae, UniProt Q7QCC7); experiment: Single-channel recording, outside-out patches from AgORco-expressing HEK293 cells; format: biochemical
T1 construct: expressed in transfected cells
T1 sequence (Q7QCC7 1-478): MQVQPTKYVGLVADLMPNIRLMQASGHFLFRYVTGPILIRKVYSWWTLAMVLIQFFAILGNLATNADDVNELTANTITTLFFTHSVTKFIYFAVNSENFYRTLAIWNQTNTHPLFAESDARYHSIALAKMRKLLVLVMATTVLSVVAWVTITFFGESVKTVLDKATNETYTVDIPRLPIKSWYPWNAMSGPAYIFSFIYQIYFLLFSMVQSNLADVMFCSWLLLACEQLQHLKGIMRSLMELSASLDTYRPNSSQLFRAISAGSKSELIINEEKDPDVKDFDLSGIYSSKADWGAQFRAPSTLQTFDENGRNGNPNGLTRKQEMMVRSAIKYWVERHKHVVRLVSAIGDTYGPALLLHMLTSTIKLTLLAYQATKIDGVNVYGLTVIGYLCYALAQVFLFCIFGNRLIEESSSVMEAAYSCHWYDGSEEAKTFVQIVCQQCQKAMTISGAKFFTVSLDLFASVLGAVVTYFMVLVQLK
Protocol: Currents from OR-expressing HEK293 cells were amplified with an Axopatch 200b Amplifier (Axon Instruments) and digitized through a Digidata 1322A (Axon Instruments). Electrophysiological data was recorded and analyzed using pCLAMP 10 (Axon Instruments). Electrodes were fabricated from quartz tubing (Sutter Instruments) and pulled to 4-6 MiΩ for whole cell recording. Electrodes were filled with internal solution (120 mM KCl, 30 mM D-glucose, 10 mM HEPES, 2 mM MgCl2, 1.1 mM EGTA, and 0.1 CaCl2) (pH 7.35, 280 mOsm). External (bath) solution contained 130 mM NaCl, 34 mM D-glucose, 10 mM HEPES, 1.5 mM CaCl2), 1.3 mM KH2PO4, and 0.5 MgSO4 (pH 7.35, 300 mOsm). Compounds were diluted in external solution and locally perfused to the recording cell using Perfusion Pencil (Automate Scientific) and controlled by a ValveLink 8.2 controller (Automate Scientific). Whole cell recordings were sampled at 10 kHz and filtered at 5 kHz. Outside-out patches were obtained using 10-15MΩ electrodes pulled from standard glass capillaries (World Precision Instruments) and fire-polished with an MF-830 micro forge (Narishige). Single channel recordings were sampled at 20 kHz. Recordings were reduced to 1 kHz and low-pass filtered at 500 Hz for display and analysis using QuB (SUNY at Buffalo). […]

AgOrco+AgOR65 = target: T2, AgOrco+AgOR65 (Anopheles gambiae, UniProt Q7QCC7); experiment: Ca2+ imaging, HEK cells expressing AgOrco+AgOR65; format: cell-based; conditions: heteromeric OR channels AgOrco+AgOR65; read-out: EC50
T2 construct: expressed in transfected cells
T2 sequence (Q7QCC7 1-478): T1 sequence (Q7QCC7 1-478)
From the text: For transient transfections, ORs were cloned into pCl (Promega) and transfected into Flp-In™ T-REx™293 cell lines (Invitrogen) with Fu GENE6 (Roche). For the creation of stable cell lines, a cell culture expression vector capable of expressing Orco in conjunction with a conventional OR, pcDNA5/FRT/TO (Invitrogen) was modified to create two individual expression cassettes each under the control of a separate CMV/Tet02 promoter and a BGH poly-adenylation signal. Cells (as above) were transfected with the modified pcDNA5 plasmid along with POG44 (a Flp recombinase expression plasmid) to facilitate site-specific recombination. Stable cell lines were selected using Hygromycin B (Invitrogen). Cells were maintained in DMEM (Invitrogen) supplemented with 10% Tetracycline-free FBS (HyClone) and 15 ng/ml Blasticidin. For fluorometric Ca2+ measurements, stable lines expressing ORs of interest were seeded at 20,000 cells/well in black wall, poly-lysine coated 384-well cell culture plates (Greiner) and treated with […] tetracycline (Sigma) overnight to induce OR expression. Cells were dye-loaded with 1.8 uM Fluo-4 AM (Molecular Probes), 2.5 mM Probenecid (Molecular Probes) in assay buffer (20 mM HEPES, IX HBSS) for 45 minutes at 37° C. in 5% CO2 prior to each assay. Ca^2+ mobilization was assayed in an FDSS6000 (Hamamatsu). Baseline readings were taken for 20 s before automated addition of compound previously diluted in DMSO and assay buffer. Ratios were described as Maximum/Minimum response and each response was normalized to the maximum responder.
For VUAA0, a single methyl from the para position of the aniline ring (compound VUAA0, FIG. 44) in the VUAA1 structure was removed. […] In VUAA0.5, unsaturation was introduced at the para position of the aniline ring (VUAA0.5, FIG. 44). […] In VUAA2, the ethyl group of the aniline ring in VUAA1 was replaced with an isopropyl group (VUAA2, FIG. 44).

AgORco+AgOR10 = target: T3, AgORco+AgOR10 (Anopheles gambiae, UniProt Q7QCC7); experiment: Whole-cell patch clamp, HEK293 cells expressing AgORco+AgOR10; format: cell-based
T3 construct: expressed in transfected cells
T3 sequence (Q7QCC7 1-478): T1 sequence (Q7QCC7 1-478)
Protocol: Currents from OR-expressing HEK293 cells were amplified with an Axopatch 200b Amplifier (Axon Instruments) and digitized through a Digidata 1322A (Axon Instruments). Electrophysiological data was recorded and analyzed using pCLAMP 10 (Axon Instruments). Electrodes were fabricated from quartz tubing (Sutter Instruments) and pulled to 4-6 MiΩ for whole cell recording. Electrodes were filled with internal solution (120 mM KCl, 30 mM D-glucose, 10 mM HEPES, 2 mM MgCl2, 1.1 mM EGTA, and 0.1 CaCl2) (pH 7.35, 280 mOsm). External (bath) solution contained 130 mM NaCl, 34 mM D-glucose, 10 mM HEPES, 1.5 mM CaCl2), 1.3 mM KH2PO4, and 0.5 MgSO4 (pH 7.35, 300 mOsm). Compounds were diluted in external solution and locally perfused to the recording cell using Perfusion Pencil (Automate Scientific) and controlled by a ValveLink 8.2 controller (Automate Scientific). Whole cell recordings were sampled at 10 kHz and filtered at 5 kHz. Outside-out patches were obtained using 10-15MΩ electrodes pulled from standard glass capillaries (World Precision Instruments) and fire-polished with an MF-830 micro forge (Narishige). Single channel recordings were sampled at 20 kHz. Recordings were reduced to 1 kHz and low-pass filtered at 500 Hz for display and analysis using QuB (SUNY at Buffalo).
To test the hypothesis that VUAA1 directly agonized AgORco, whole-cell patch clamp responses were examined in AgORco+AgOR10 expressing cells as well as HEK293 cells stably expressing AgORco alone. […] The VUAA1-dependent currents in AgORco+AgOR10 cells resembled those resulting from application of benzaldehyde, an orthosteric agonist of AgOR10 (FIG. 3C) (Wang, 2010; Carey, 2010). […] To investigate the specificity of VUAA1 agonism, the inventors transiently transfected HEK cells with the AgORco orthologs of Drosophila melanogaster and Heliothis virescens, DmORco and HvOR2 respectively.

## CCc1ccc(NC(=O)CSc2nnc(-c3cccnc3)n2CC)cc1 [VUAA1, 2-((4-ethyl-5-(pyridin-3-yl)-4H-1,2,4-triazol-3-yl)thio)-N-(4-ethylphenyl)acetamide]
AgORco; VUAA1-evoked, mean±st. dev.
  average unitary current of AgORco: 1.3±0.3 pA
AgORco; during 5 s application of −4.0 log M VUAA1, patch held at −60 mV
  channel opening probability P0: 0.38
AgOrco+AgOR65
  EC50: 37 µM
AgORco+AgOR10; AgORco+AgOR10 cells, holding potential −60 mV
  whole-cell current response: concentration-dependent inward currents
AgORco+AgOR10; AgORco+AgOR10 complexes, mean s.e.m.
  reversal potential of agonist-induced current: −4.8±3.0 mV
AgORco+AgOR10; −5.0 log M
  whole-cell current response at −5.0 log M: inward currents

Reference: US11484032B2, “Compositions for inhibition of insect sensing” (Vanderbilt University, priority 2011, dated 2022)
